Where two headings read alike, the source gives them in different places.
What was measured:
Type in all cases: cell-based
HIV-1 = test: in vitro anti-HIV assay: inhibition of the HIV-induced cytopathic effect in MT-4 cells (MTT); conditions: OD 540 nm
Method: (§1) A rapid, sensitive and automated assay procedure was used for the in vitro evaluation of anti-HIV agents. An HIV-1 transformed T4-cell line, MT-4, which was previously shown (Koyanagi et al., Int. J. Cancer, 36, 445-451, 1985) to be highly susceptible to and permissive for HIV infection, served as the target cell line. Inhibition of the HIV-induced cytopathic effect was used as the end point. The viability of both HIV- and mock-infected cells was assessed spectrophotometrically via the in situ reduction of 3-(4,5-dimethylthiazol-2-yl)-2,5-diphenyltetrazolium bromide (MTT). […] The percent protection achieved by the compound in HIV-infected cells was calculated by the following formula: [formula]
(§2) whereby (ODT)HIV is the optical density measured with a given concentration of the test compound in HIV-infected cells; (ODC)HIV is the optical density measured for the control untreated HIV-infected cells: (ODC)MOCK is the optical density measured for the control untreated mock-infected cells; all optical density values were determined at 540 nm. […] The ratio of CC50 to IC50 was defined as the selectivity index (SI).

[1] = cytotoxicity in mock-infected MT-4 cells (MTT); conditions: human, mock-infected MT-4 cells, 50% cytotoxic concentration; reduces absorbance of mock-infected MT-4 control by 50%; MTT
Method: as §1, with “An HIV-1 transformed T4-cell line, MT-4, which was previously shown (Koyanagi et al., Int. J. Cancer, 36, 445-451, 1985) to be highly susceptible to and permissive for HIV infection, served as the target cell line.” left out
as §2

[2] = system: MT-4 cells (mock-infected); test: cytotoxicity in mock-infected MT-4 cells (MTT)
Method: as §1, with “An HIV-1 transformed T4-cell line, MT-4, which was previously shown (Koyanagi et al., Int. J. Cancer, 36, 445-451, 1985) to be highly susceptible to and permissive for HIV infection, served as the target cell line.” left out
as §2

[3] = Human immunodeficiency virus 1, MT4, dose achieving 50% protection of HIV-infected MT-4 cells against cytopathic effect
[4] = dose achieving 50% protection of HIV-infected MT-4 cells against cytopathic effect

| Structure (SMILES) | IC50 (HIV-1; [3]) | CC50 [1] | IC50 (HIV-1; [4]) | CC50 [2] | CC50 ([2]; 50% cytotoxic concentration, reduces absorbance of mock-infected MT-4 control by 50%, MTT, read-out: CC50) |
| --- | --- | --- | --- | --- | --- |
| N#Cc1ccc(Nc2nc(Cc3c(Cl)cccc3Cl)cc(NCCCO)n2)cc1 [Compound 3, 4-[[4-[(2,6-dichloro-phenyl)methyl]-6-[(3-hydroxypropyl)amino]-2-pyrimidinyl]amino]benzonitrile] | 16 nM | 37400 nM |  |  |  |
| N#Cc1ccc(Nc2cc(Cc3c(Cl)cccc3Cl)nc(NCCCN3CCCC3=O)n2)cc1 [Compound 39, 4-[[6-[(2,6-dichloro-phenyl)methyl]-2-[[3-(2-oxo-1-pyrrolidinyl)propyl]amino]-4-pyrimidinyl]amino]benzonitrile] | 1530 nM | > 100000 nM |  |  |  |
| Cc1cc(C)c(Nc2ccnc(Nc3ccc(C#N)cc3)n2)c(C)c1 [Compound 52, 4-[[4-[(2,4,6-trimethylphenyl)amino]-2-pyrimidinyl]amino]benzonitrile] | 1 nM | 2080 nM |  |  |  |
| N#Cc1ccc(Nc2nccc(Nc3c(Cl)cc(Br)c(Cl)c3Br)n2)cc1 [Compound 78] |  |  | 2.8 nM | 400 nM |  |
| CCCc1cc(Br)c(Nc2ccnc(Nc3ccc(C#N)cc3)n2)c(Br)c1 [Compound 79] |  |  | 3.1 nM | 4800 nM |  |
| Cc1cc(C(C)(C)C)cc(C)c1Nc1ccnc(Nc2ccc(C#N)cc2)n1 [Compound 80] |  |  | 11 nM | 8700 nM |  |
| Cc1cc(C#N)cc(C)c1Oc1ccnc(Nc2ccc(C#N)cc2)n1 [Compound 81] |  |  | 1.1 nM | > 100000 nM |  |
| Cc1cnc(Nc2ccc(C#N)cc2)nc1Nc1c(C)cc(Cl)cc1C [Compound 82] |  |  | 2.6 nM | 400 nM |  |
| Cc1cnc(Nc2ccc(C#N)cc2)nc1Nc1c(C)cc(C(C)(C)C)cc1C [Compound 84] |  |  | 12 nM | 9300 nM |  |
| Cc1cnc(Nc2ccc(C#N)cc2)nc1Nc1c(C)cc(Br)cc1C [Compound 85] |  |  | 2 nM | 400 nM |  |
| Cc1cc(C)c(Sc2nc(Nc3ccc(C#N)cc3)ncc2C)c(C)c1 [Compound 86] |  |  | 10 nM | > 100000 nM |  |
| CCCc1cc(Br)c(Nc2nc(Nc3ccc(C#N)cc3)ncc2C)c(Br)c1 [Compound 87] |  |  | 3.1 nM | 2200 nM |  |
| Cc1cnc(Nc2ccc(C#N)cc2)nc1Nc1c(Br)cc(C(C)C)cc1Br [Compound 88] |  |  | 2.7 nM | 2100 nM |  |
| Cc1cc(C)c(Nc2ccnc(Nc3ccc(C#N)cc3N)n2)c(C)c1 [Compound 90] |  |  | 3400 nM | 30800 nM |  |
| Cc1cc(C)c(Nc2ccnc(Nc3ccc(C#N)c(O)c3)n2)c(C)c1 [Compound 91] |  |  | 2.5 nM | 4900 nM |  |
| Clc1cccc(Cl)c1Nc1ccnc(Nc2c(Cl)cccc2Cl)n1 [Compound 92] |  |  | 45000 nM | > 90000 nM |  |
| Cc1cc(C)c(Nc2nccc(Nc3ccc(C#N)cc3)n2)c(C)c1 [Compound 93] |  |  | 3.5 nM | 48100 nM |  |
| Cc1cc(C)c(Nc2cc(N)nc(Nc3ccc(C#N)cc3)n2)c(C)c1 [Compound 94] |  |  | 2.2 nM | 11100 nM |  |
| Cc1cc(C)c(Nc2cc(Nc3ccc(C#N)cc3)nc(N)n2)c(C)c1 [Compound 95] |  |  | 0.6 nM | 7700 nM |  |
| Cc1cc(C)c(Nc2ccnc(Nc3ccc(Cl)cc3)n2)c(C)c1 [Compound 96] |  |  | 3.1 nM | 5800 nM |  |
| Cc1cc(C)c(Nc2ccnc(Nc3ccc(F)cc3F)n2)c(C)c1 [Compound 97] |  |  | 32 nM | 13200 nM |  |
| Cc1cc(C)c(Nc2ccnc(Nc3ccc(Br)cn3)n2)c(C)c1 [Compound 98] |  |  | 2000 nM | 13800 nM |  |
| Cc1cc(C)c(Nc2ccnc(Nc3ccc(C(N)=O)c(N)c3)n2)c(C)c1 [Compound 101] |  |  | 53 nM | 29500 nM |  |
| Cc1cc(C)c(Nc2ccnc(Nc3ccc(C#N)c(N)c3)n2)c(C)c1 [Compound 102] |  |  | 8.2 nM |  | 500 nM |
| Cc1c(N)nc(Nc2ccc(CC#N)cc2)nc1Cc1c(Cl)cccc1Cl [Compound 103] |  |  | 22 nM | > 100000 nM |  |
| N#Cc1ccc(Nc2nccc(NCc3ccccc3)n2)cc1 [Compound 104] |  |  | 3.4 nM | 18600 nM |  |
